Assay results as given in patent publication US12606538B2, “Benzo[b]selenophene sting regulator, preparation method and use thereof” (CHINA PHARMACEUTICAL UNIVERSITY, priority 2021, dated 2026).
Values after ≈ are worked out from the molar mass of the structure shown.

System: THP1-dual cells
Experiment: Luciferase assay based on THP1-dual cells
Format: cell-based
Details: final concentration of compound 10 μL (so in the source), 24 h at 37° C.
Experimental: (§1) THP1-dual™ (Invivogen: thpd-nfis) cells or RAW-Lucia™ (Invivogen: rawl-isg) cells were diluted using a culture medium, and 180 μL of cell suspension was sucked and inoculated in a 96-well plate, such that each well contain 1×10^5 cells. 20 μL of a compound to be tested was added into the 96-well plate (the final concentration of said compound was […], and the final volume of each well was […]) and cultured at 37° C. for 24 h. 10 μL of supernatant was sucked into a new 96-well white plate, and 50 μL of a QUANT-Luc reagent was added. After full and even mixing, a microplate reader was used immediately for determination. There were three repeated wells set in the assay. The test result was represented as agitation fold and calculated by (test well−blank well)/(negative well−blank well). The test result was in the following tablet, with 2′,3′-cGAMP as a positive control, where *** represented an agitation fold of 20 or more, ** represented an agitation fold of 10 to 20, and * represented an agitation fold of 1 to 10.
In the case of `COc1cc2cc(C(=O)C3CCCCC3C(=O)O)[se]c2cc1OC` (stereo not drawn) [I-24], the “Agitation activity in luciferase assay, THP1-dual (agitation fold)” value is reported as “** (** represented an agitation fold of 10 to 20)”. In the case of `COc1cc2cc(C(=O)CC(C(=O)O)C3CC3)[se]c2cc1OC` (stereo not drawn) [I-18, 2-cyclopropyl-4-(5,6-dimethoxybenzo[b]selenophene-2-yl)-4-oxo-butanoic acid], the “Agitation activity in luciferase assay, THP1-dual (agitation fold)” value is reported as “*** (*** represented an agitation fold of 20 or more)”. With `CCOc1cc2cc(C(=O)CC(C)C(=O)O)[se]c2cc1OC` (stereo not drawn) [I-9, 4-(5-ethoxy-6-dimethoxybenzo[b]selenophene-2-yl)-2-methyl-4-oxo-butanoic acid] the “Agitation activity in luciferase assay, THP1-dual (agitation fold)” value was “** (** represented an agitation fold of 10 to 20)”. In the case of `COc1cc2cc(C(=O)CC(C)C(=O)NO)[se]c2cc1OC` (stereo not drawn) [I-12, 4-(5,6-dimethoxybenzo[b]selenophene-2-yl)-N-hydroxyl-2-methyl-4-oxo-butyramide], the “Agitation activity in luciferase assay, THP1-dual (agitation fold)” value is reported as “* (* represented an agitation fold of 1 to 10)”. In the case of `COc1cc2cc(C(=O)C[C@@H](C)C(=O)O)[se]c2cc1OC` [I-3, R-4-(5,6-dimethoxybenzo[b]selenophene-2-yl)-2-methyl-4-oxo-butanoic acid], the “Agitation activity in luciferase assay, THP1-dual (agitation fold)” value is reported as “*** (*** represented an agitation fold of 20 or more)”. In the case of `CCOC(=O)C(C)CC(=O)c1cc2cc(OC)c(OC)cc2[se]1` (stereo not drawn) [I-11, 4-(5,6-dimethoxybenzo[b]selenophene-2-yl)-2-methyl-4-oxo-ethyl butyrate], the “Agitation activity in luciferase assay, THP1-dual (agitation fold)” value is reported as “* (* represented an agitation fold of 1 to 10)”. For `CC[C@@H](CC(=O)c1cc2cc(OC)c(OC)cc2[se]1)C(=O)O` [I-16, S-4-(5,6-dimethoxybenzo[b]selenophene-2-yl)-2-ethyl-4-oxo-butanoic acid], the “Agitation activity in luciferase assay, THP1-dual (agitation fold)” value was “*** (*** represented an agitation fold of 20 or more)”. With `CC(CC(=O)c1cc2cc3c(cc2[se]1)OCO3)C(=O)O` (stereo not drawn) [I-8, 2-methyl-4-oxo-4-(selenophene[2′,3′:4,5]benzo[1,2-d][1,3]dioxo-6-yl)butanoic acid] the “Agitation activity in luciferase assay, THP1-dual (agitation fold)” value was “* (* represented an agitation fold of 1 to 10)”. With `COc1ccc2[se]c(C(=O)CC(C)C(=O)O)cc2c1` (stereo not drawn) [I-5] the “Agitation activity in luciferase assay, THP1-dual (agitation fold)” value was “* (* represented an agitation fold of 1 to 10)”. For `COc1cc2cc(C(=O)C3CCC3C(=O)O)[se]c2cc1OC` (stereo not drawn) [I-23], the “Agitation activity in luciferase assay, THP1-dual (agitation fold)” value was “*** (*** represented an agitation fold of 20 or more)”.

System: RAW-Lucia cells
Experiment: Luciferase assay based on RAW-Lucia cells
Format: cell-based
Details: 24 h at 37° C.
Experimental: as §1
With `COc1cc2cc(C(=O)C3CCCCC3C(=O)O)[se]c2cc1OC` (stereo not drawn) [I-24] the “Agitation activity in luciferase assay, RAW-Lucia (agitation fold)” value was “** (** represented an agitation fold of 10 to 20)”. With `COc1cc2cc(C(=O)CC(C(=O)O)C3CC3)[se]c2cc1OC` (stereo not drawn) [I-18, 2-cyclopropyl-4-(5,6-dimethoxybenzo[b]selenophene-2-yl)-4-oxo-butanoic acid] the “Agitation activity in luciferase assay, RAW-Lucia (agitation fold)” value was “** (** represented an agitation fold of 10 to 20)”. For `CCOc1cc2cc(C(=O)CC(C)C(=O)O)[se]c2cc1OC` (stereo not drawn) [I-9, 4-(5-ethoxy-6-dimethoxybenzo[b]selenophene-2-yl)-2-methyl-4-oxo-butanoic acid], the “Agitation activity in luciferase assay, RAW-Lucia (agitation fold)” value was “** (** represented an agitation fold of 10 to 20)”. With `COc1cc2cc(C(=O)CC(C)C(=O)NO)[se]c2cc1OC` (stereo not drawn) [I-12, 4-(5,6-dimethoxybenzo[b]selenophene-2-yl)-N-hydroxyl-2-methyl-4-oxo-butyramide] the “Agitation activity in luciferase assay, RAW-Lucia (agitation fold)” value was “* (* represented an agitation fold of 1 to 10)”. With `COc1cc2cc(C(=O)C[C@@H](C)C(=O)O)[se]c2cc1OC` [I-3, R-4-(5,6-dimethoxybenzo[b]selenophene-2-yl)-2-methyl-4-oxo-butanoic acid] the “Agitation activity in luciferase assay, RAW-Lucia (agitation fold)” value was “*** (*** represented an agitation fold of 20 or more)”. In the case of `CCOC(=O)C(C)CC(=O)c1cc2cc(OC)c(OC)cc2[se]1` (stereo not drawn) [I-11, 4-(5,6-dimethoxybenzo[b]selenophene-2-yl)-2-methyl-4-oxo-ethyl butyrate], the “Agitation activity in luciferase assay, RAW-Lucia (agitation fold)” value is reported as “** (** represented an agitation fold of 10 to 20)”. For `CC[C@@H](CC(=O)c1cc2cc(OC)c(OC)cc2[se]1)C(=O)O` [I-16, S-4-(5,6-dimethoxybenzo[b]selenophene-2-yl)-2-ethyl-4-oxo-butanoic acid], the “Agitation activity in luciferase assay, RAW-Lucia (agitation fold)” value was “*** (*** represented an agitation fold of 20 or more)”. With `CC(CC(=O)c1cc2cc3c(cc2[se]1)OCO3)C(=O)O` (stereo not drawn) [I-8, 2-methyl-4-oxo-4-(selenophene[2′,3′:4,5]benzo[1,2-d][1,3]dioxo-6-yl)butanoic acid] the “Agitation activity in luciferase assay, RAW-Lucia (agitation fold)” value was “* (* represented an agitation fold of 1 to 10)”. For `COc1ccc2[se]c(C(=O)CC(C)C(=O)O)cc2c1` (stereo not drawn) [I-5], the “Agitation activity in luciferase assay, RAW-Lucia (agitation fold)” value was “* (* represented an agitation fold of 1 to 10)”. In the case of `COc1cc2cc(C(=O)C3CCC3C(=O)O)[se]c2cc1OC` (stereo not drawn) [I-23], the “Agitation activity in luciferase assay, RAW-Lucia (agitation fold)” value is reported as “*** (*** represented an agitation fold of 20 or more)”.

System: THP1 cells
Experiment: Interferon β induction assay based on THP1 cells (ELISA)
Format: cell-based
Details: Homo sapiens, THP-1, compound 20 μM, 3.5 h, read-out: Secretion of IFNβ in THP1 cells, effect relative to 2′,3′-cGAMP at 20 μM (%)
Experimental: Secreted cytokine IFNβ was determined by ELISA. THP1 cells were inoculated in a 96-well plate (there was no serum contained in an RPMI 1640 medium), such that the number of cells in each well ranged from 5×10^5 to 7×10^5. A DMSO stock solution of 10 mM was prepared from a compound to be tested, diluted with a culture medium to a target concentration to be added into the 96-well plate containing cells (the final concentration of said compound was 20 μM, and the final volume of each well was 200 μL), and cultured at 37° C. in 5% CO2 for 3.5 h. The cells were collected at 4° C. and centrifuged at 1,000 rpm for 20 mins, and supernate was collected for ELISA determination. There were three repeated wells set in the assay. The result was shown in the following tablet, with 2′,3′-cGAMP as a positive control, where the test result was represented as a percentage of activity relative to 2′,3′-cGAMP at a concentration of 20 μM.
For `COc1cc2cc(C(=O)C3CCCCC3C(=O)O)[se]c2cc1OC` (stereo not drawn) [I-24], the Emax at 20 µM was 142%. `COc1cc2cc(C(=O)CC(C(=O)O)C3CC3)[se]c2cc1OC` (stereo not drawn) [I-18, 2-cyclopropyl-4-(5,6-dimethoxybenzo[b]selenophene-2-yl)-4-oxo-butanoic acid] showed an Emax at 20 µM of 277%. With `CCOc1cc2cc(C(=O)CC(C)C(=O)O)[se]c2cc1OC` (stereo not drawn) [I-9, 4-(5-ethoxy-6-dimethoxybenzo[b]selenophene-2-yl)-2-methyl-4-oxo-butanoic acid] the Emax at 20 µM was 96%. With `COc1cc2cc(C(=O)CC(C)C(=O)NO)[se]c2cc1OC` (stereo not drawn) [I-12, 4-(5,6-dimethoxybenzo[b]selenophene-2-yl)-N-hydroxyl-2-methyl-4-oxo-butyramide] the Emax at 20 µM was 11%. For `COc1cc2cc(C(=O)C[C@@H](C)C(=O)O)[se]c2cc1OC` [I-3, R-4-(5,6-dimethoxybenzo[b]selenophene-2-yl)-2-methyl-4-oxo-butanoic acid], the Emax at 20 µM was 234%. Compound `CCOC(=O)C(C)CC(=O)c1cc2cc(OC)c(OC)cc2[se]1` (stereo not drawn) [I-11, 4-(5,6-dimethoxybenzo[b]selenophene-2-yl)-2-methyl-4-oxo-ethyl butyrate] has an Emax at 20 µM of 9%. For `CC[C@@H](CC(=O)c1cc2cc(OC)c(OC)cc2[se]1)C(=O)O` [I-16, S-4-(5,6-dimethoxybenzo[b]selenophene-2-yl)-2-ethyl-4-oxo-butanoic acid], the Emax at 20 µM was 281%. `CC(CC(=O)c1cc2cc3c(cc2[se]1)OCO3)C(=O)O` (stereo not drawn) [I-8, 2-methyl-4-oxo-4-(selenophene[2′,3′:4,5]benzo[1,2-d][1,3]dioxo-6-yl)butanoic acid] gave an Emax at 20 µM of 20%. With `COc1ccc2[se]c(C(=O)CC(C)C(=O)O)cc2c1` (stereo not drawn) [I-5] the Emax at 20 µM was 59%. `COc1cc2cc(C(=O)C3CCC3C(=O)O)[se]c2cc1OC` (stereo not drawn) [I-23] gave an Emax at 20 µM of 273%.

System: not listed separately
Experiment: Water solubility
Format: physicochemical
Details: not given
Source text: (§2) The test result was shown in the following table, with MSA2 (Science. 2020, 369, eaba6098) as a reference compound.
With `COc1cc2cc(C(=O)CCC(=O)O)sc2cc1OC` [MSA2, reference compound] the “water solubility, PBS” value was 400 µg/mL (≈ 1360 µM) and the “water solubility, Water” value was 6 µg/mL (≈ 20.4 µM).

System: not listed separately
Experiment: LogP
Format: physicochemical
Details: not given
Source text: as §2
`COc1cc2cc(C(=O)CCC(=O)O)sc2cc1OC` [MSA2, reference compound] gave a logP of 1.5.

System: not listed separately
Experiment: Stability of rat liver microsome within 2 h
Format: in vitro ADME
Details: rat, microsomes, 2 h
Source text: as §2
With `COc1cc2cc(C(=O)CCC(=O)O)sc2cc1OC` [MSA2, reference compound] the “RLM @ 2 h (%)” value was greater than 90%.

System: not listed separately
Experiment: Stability of human plasma within 24 h
Format: in vitro ADME
Details: not given
Source text: as §2
In the case of `COc1cc2cc(C(=O)CCC(=O)O)sc2cc1OC` [MSA2, reference compound], the “hPlasma @ 24 h (%)” value is reported as greater than 90%.

System: THP1 cells
Experiment: THP1 cell growth inhibition activity
Format: cell-based
Details: not given
Source text: as §2
With `COc1cc2cc(C(=O)CCC(=O)O)sc2cc1OC` [MSA2, reference compound] the IC50 was greater than 100 µM.
